Assays:
Experiment in all cases: relative viability (nuclei count vs DMSO), 5 days (fraction); higher = more cells survive
[1] = tested on: HCC-44
Procedure, shortened: (§1)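 Lung cancer cell lines were pin-tool dosed in 1536-well plates on the day after seeding, with either a lone drug or a fixed anchor-drug dose plus five library-drug doses (not always all listed) in √10 steps. Nuclei were counted on 4× images after 5 days. Relative viability is the ratio of treated-well to vehicle-well nuclei counts, with each value a median of duplicate plates.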

[2] = tested on: SK-MES-1
Procedure, shortened: as §1

[3] = tested on: NCI-H520
Procedure, shortened: as §1

[4] = tested on: NCI-H1915
Procedure, shortened: as §1

[5] = tested on: LXF-289
Procedure, shortened: as §1

[6] = tested on: COR-L 105
Procedure, shortened: as §1

[7] = tested on: LOU-NH91
Procedure, shortened: as §1

[8] = tested on: NCI-H1975
Procedure, shortened: as §1

[9] = tested on: NCI-H1793
Procedure, shortened: as §1

[10] = tested on: NCI-H2023
Procedure, shortened: as §1

[11] = tested on: HCC-827
Procedure, shortened: as §1

[12] = tested on: A-427
Procedure, shortened: as §1

[13] = tested on: SW 1573
Procedure, shortened: as §1

[14] = tested on: NCI-H2087
Procedure, shortened: as §1

[15] = tested on: H3255
Procedure, shortened: as §1

[16] = tested on: NCI-H1792
Procedure, shortened: as §1

[17] = tested on: NCI-H2170
Procedure, shortened: as §1

[18] = tested on: NCI-H1944
Procedure, shortened: as §1

Compound: Cc1cn(-c2cc(NC(=O)c3ccc(C)c(Nc4nccc(-c5cccnc5)n4)c3)cc(C(F)(F)F)c2)cn1 [Nilotinib] + CC1(C)CCC(c2ccc(Cl)cc2)=C(CN2CCN(c3ccc(C(=O)NS(=O)(=O)c4ccc(N[C@H](CCN5CCOCC5)CSc5ccccc5)c(S(=O)(=O)C(F)(F)F)c4)cc3)CC2)C1 [Navitoclax] (partner 0.5 µM)
- relative viability ([1]; first compound 0.001 µM): 0.845
- relative viability ([1]; first compound 0.003162 µM): 1.22
- relative viability ([1]; first compound 0.01 µM): 1.39
- relative viability ([1]; first compound 0.03162 µM): 0.844
- relative viability ([1]; first compound 0.1 µM): 0.999
- relative viability ([2]; first compound 0.001 µM): 1.17
- relative viability ([2]; first compound 0.003162 µM): 1.5
- relative viability ([2]; first compound 0.01 µM): 1.61
- relative viability ([2]; first compound 0.03162 µM): 1.1
- relative viability ([2]; first compound 0.1 µM): 1.29
- relative viability ([3]; first compound 0.001 µM): 1.13
- relative viability ([3]; first compound 0.01 µM): 1.11
- relative viability ([3]; first compound 0.03162 µM): 0.96
- relative viability ([3]; first compound 0.1 µM): 1.15
- relative viability ([4]; first compound 0.001 µM): 0.764
- relative viability ([4]; first compound 0.003162 µM): 0.813
- relative viability ([4]; first compound 0.01 µM): 0.807
- relative viability ([4]; first compound 0.03162 µM): 0.751
- relative viability ([4]; first compound 0.1 µM): 0.781
- relative viability ([5]; first compound 0.001 µM): 0.904
- relative viability ([5]; first compound 0.003162 µM): 1.09
- relative viability ([5]; first compound 0.01 µM): 1.05
- relative viability ([5]; first compound 0.03162 µM): 0.855
- relative viability ([5]; first compound 0.1 µM): 0.878
- relative viability ([6]; first compound 0.001 µM): 0.709
- relative viability ([6]; first compound 0.01 µM): 0.696
- relative viability ([6]; first compound 0.03162 µM): 0.644
- relative viability ([6]; first compound 0.1 µM): 0.848
- relative viability ([7]; first compound 0.001 µM): 0.644
- relative viability ([7]; first compound 0.003162 µM): 0.685
- relative viability ([7]; first compound 0.01 µM): 0.846
- relative viability ([7]; first compound 0.03162 µM): 0.608
- relative viability ([7]; first compound 0.1 µM): 0.658
- relative viability ([8]; first compound 0.001 µM): 0.904
- relative viability ([8]; first compound 0.003162 µM): 1.22
- relative viability ([8]; first compound 0.01 µM): 1.34
- relative viability ([8]; first compound 0.03162 µM): 0.694
- relative viability ([8]; first compound 0.1 µM): 0.976
- relative viability ([9]; first compound 0.003162 µM): 0.452
- relative viability ([9]; first compound 0.01 µM): 0.587
- relative viability ([9]; first compound 0.03162 µM): 0.385
- relative viability ([9]; first compound 0.1 µM): 0.275
- relative viability ([10]; first compound 0.001 µM): 0.914
- relative viability ([10]; first compound 0.003162 µM): 1.13
- relative viability ([10]; first compound 0.01 µM): 1.32
- relative viability ([10]; first compound 0.03162 µM): 1.02
- relative viability ([10]; first compound 0.1 µM): 1.02
- relative viability ([11]; first compound 0.001 µM): 1.02
- relative viability ([11]; first compound 0.003162 µM): 1.08
- relative viability ([11]; first compound 0.01 µM): 1.1
- relative viability ([11]; first compound 0.1 µM): 1
- relative viability ([12]; first compound 0.001 µM): 0.984
- relative viability ([12]; first compound 0.01 µM): 0.998
- relative viability ([12]; first compound 0.03162 µM): 0.908
- relative viability ([12]; first compound 0.1 µM): 0.923
- relative viability ([13]; first compound 0.001 µM): 1.05
- relative viability ([13]; first compound 0.003162 µM): 1.23
- relative viability ([13]; first compound 0.01 µM): 1.14
- relative viability ([13]; first compound 0.03162 µM): 0.792
- relative viability ([13]; first compound 0.1 µM): 1.01
- relative viability ([14]; first compound 0.001 µM): 0.795
- relative viability ([14]; first compound 0.003162 µM): 0.86
- relative viability ([14]; first compound 0.01 µM): 0.997
- relative viability ([14]; first compound 0.03162 µM): 0.93
- relative viability ([14]; first compound 0.1 µM): 0.734
- relative viability ([15]; first compound 0.001 µM): 0.508
- relative viability ([15]; first compound 0.003162 µM): 0.479
- relative viability ([15]; first compound 0.01 µM): 0.541
- relative viability ([15]; first compound 0.03162 µM): 0.246
- relative viability ([15]; first compound 0.1 µM): 0.382
- relative viability ([16]; first compound 0.001 µM): 0.523
- relative viability ([16]; first compound 0.01 µM): 0.907
- relative viability ([16]; first compound 0.1 µM): 0.794
- relative viability ([17]; first compound 0.001 µM): 0.483
- relative viability ([17]; first compound 0.003162 µM): 0.64
- relative viability ([17]; first compound 0.01 µM): 0.716
- relative viability ([17]; first compound 0.03162 µM): 0.56
- relative viability ([17]; first compound 0.1 µM): 0.771
- relative viability ([18]; first compound 0.001 µM): 1.03
- relative viability ([18]; first compound 0.003162 µM): 1.13
- relative viability ([18]; first compound 0.01 µM): 1.22
- relative viability ([18]; first compound 0.03162 µM): 1.12
- relative viability ([18]; first compound 0.1 µM): 0.987

— the supplement of paper PMC10307832
